This assay has as its target T1, recombinant N-terminal MLH1 (residues 15-340) (Homo sapiens, UniProt P40692).
T1 construct: recombinant N-terminal MLH1 (residues 15-340)
T1 sequence (P40692 15-340): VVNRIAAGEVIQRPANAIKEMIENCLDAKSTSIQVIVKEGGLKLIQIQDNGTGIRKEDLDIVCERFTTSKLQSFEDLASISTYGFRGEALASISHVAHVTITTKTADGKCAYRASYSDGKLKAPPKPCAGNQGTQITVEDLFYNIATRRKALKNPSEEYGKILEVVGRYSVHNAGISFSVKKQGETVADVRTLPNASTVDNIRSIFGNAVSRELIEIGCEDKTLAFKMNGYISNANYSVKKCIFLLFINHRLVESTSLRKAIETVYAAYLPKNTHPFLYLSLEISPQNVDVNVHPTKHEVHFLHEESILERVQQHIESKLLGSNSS
Description: Fluorescence Polarisation Assay for MLH1. The assay is classed as binding. As to conditions: 100 nM N-terminal MLH1, 5 nM probe compound. In short, it runs like this:
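Fluorescence polarisation displacement: 100 nM MLH1 (15-340) preincubated 30 min at room temperature with compound, then 5 nM rhodamine-labelled probe added and read immediately. Buffer 25 mM HEPES pH 7.5, 250 mM NaCl, 10 mM MgCl2, 0.01% Triton X-100, 5 mM DTT; normalised to no-inhibitor and no-enzyme controls.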

One may read the IC50 as the point on the concentration scale where inhibition reaches its midpoint. On to `COc1cc2c(c(N[C@@H]3CCOC3)c1)CN(C(=O)c1c(O)cc(C#N)cc1OCc1ccccc1)C2` [Example 10.13, (R)-3-(Benzyloxy)-5-hydroxy-4-(6-methoxy-4-((tetrahydrofuran-3-yl)amino)isoindoline-2-carbonyl)benzonitrile], for which the IC50 fell in the range of 0.1 to 1 µM.

Consider `COc1cc2c(c(N[C@H]3CCOC3)c1)CN(C(=O)c1c(O)cc(C#N)cc1OCc1ccccc1)C2` [Example 10.14, (S)-3-(Benzyloxy)-5-hydroxy-4-(6-methoxy-4-((tetrahydrofuran-3-yl)amino)isoindoline-2-carbonyl)benzonitrile], for which the 50% inhibitory concentration (IC50) was in the range of 0.1 to 1 µM.

Turning to `CN(C)Cc1ccc2c(c1)CN(C(=O)c1c(O)cc(C#N)cc1OCc1ccccc1)C2` [Example 10.15, 3-(Benzyloxy)-4-(5-((dimethylamino)methyl)isoindoline-2-carbonyl)-5-hydroxybenzonitrile], the IC50 lay within 1 to 10 µM.

As to `CC(=O)N1CCC(Nc2cccc3c2CN(C(=O)c2c(O)cc(C#N)cc2OCc2ccccc2)C3)CC1` [Example 10.16, 4-(4-((1-Acetylpiperidin-4-yl)amino)isoindoline-2-carbonyl)-3-(benzyloxy)-5-hydroxybenzonitrile], the IC50 was 0.1 to 1 µM.

Take `CC(=O)N1CCC[C@@H](Nc2cccc3c2CN(C(=O)c2c(O)cc(C#N)cc2OCc2ccccc2)C3)C1` [Example 10.17, (R)-4-(4-((1-Acetylpiperidin-3-yl)amino)isoindoline-2-carbonyl)-3-(benzyloxy)-5-hydroxybenzonitrile]: the IC50 fell in the range of 1 to 10 µM.

Regarding `CC(=O)N1CCC[C@H](Nc2cccc3c2CN(C(=O)c2c(O)cc(C#N)cc2OCc2ccccc2)C3)C1` [Example 10.18, (S)-4-(4-((1-Acetylpiperidin-3-yl)amino)isoindoline-2-carbonyl)-3-(benzyloxy)-5-hydroxybenzonitrile], the IC50 lay in the range of 0.1 to 1 µM.

As for `N#Cc1cc(O)c(C(=O)N2Cc3cccc(NC4COC(=O)C4)c3C2)c(OCc2ccccc2)c1` (stereo not shown) [Example 10.19, 3-(Benzyloxy)-5-hydroxy-4-(4-((5-oxotetrahydrofuran-3-yl)amino)isoindoline-2-carbonyl)benzonitrile], the half-maximal inhibitory concentration (IC50) lay within 0.1 to 1 µM.

With `CN1CC(Nc2cccc3c2CN(C(=O)c2c(O)cc(Cl)cc2OCc2ccccc2)C3)C1` [Example 10.20, (2-(Benzyloxy)-4-chloro-6-hydroxyphenyl)(4-((1-methylazetidin-3-yl)amino)isoindolin-2-yl)methanone], the IC50 lay within 0.1 to 1 µM.

Turning to `CN(C)Cc1ccc2c(n1)CN(C(=O)c1c(O)cc(Cl)cc1OCc1ccccc1)C2` [Example 10.21], the IC50 fell in the range of 1 to 10 µM.

Consider `CN(C)CCOc1ccc2c(c1)CCN(C(=O)c1c(O)cc(Cl)cc1OCc1ccccc1)C2` [Example 10.22, (2-(Benzyloxy)-4-chloro-6-hydroxyphenyl)(6-(2-(dimethylamino)ethoxy)-3,4-dihydroisoquinolin-2(1H)-yl)methanone], for which the half-maximal inhibitory concentration (IC50) lay in the range of 1 to 10 µM.

For the compound `CC(=O)N1CC(Nc2cccc3c2CN(C(=O)c2c(O)cc(F)cc2OCc2ccccc2)C3)C1` [Example 10.23, 1-(3-((2-(2-(Benzyloxy)-4-fluoro-6-hydroxybenzoyl)isoindolin-4-yl)amino)azetidin-1-yl)ethan-1-one], the IC50 lay within 0.1 to 1 µM.

In the case of `CN(C)CCOc1ccc2c(c1)CCN(C(=O)c1c(O)cc(F)cc1OCc1ccccc1)C2` [Example 10.24, (2-(Benzyloxy)-4-fluoro-6-hydroxyphenyl)(6-(2-(dimethylamino)ethoxy)-3,4-dihydroisoquinolin-2(1H)-yl)methanone], the IC50 is 1 to 10 µM.

As to `N#Cc1cc(O)c(C(=O)N2Cc3cccc(NC4COC4)c3C2)c(OCc2ccccc2)c1` [Example 10.26, 3-(Benzyloxy)-5-hydroxy-4-(4-(oxetan-3-ylamino)isoindoline-2-carbonyl)benzonitrile], the IC50 lay within 0.1 to 1 µM.

In the case of `CN1CC[C@H](Nc2cccc3c2CN(C(=O)c2c(O)cc(C#N)cc2OCc2ccccc2)C3)C1=O` [Example 10.27, (S)-3-(Benzyloxy)-5-hydroxy-4-(4-((1-methyl-2-oxopyrrolidin-3-yl)amino)isoindoline-2-carbonyl)benzonitrile], the IC50 is 0.1 to 1 µM.

As to `CN1CC[C@@H](Nc2cccc3c2CN(C(=O)c2c(O)cc(C#N)cc2OCc2ccccc2)C3)C1=O` [Example 10.28, (R)-3-(benzyloxy)-5-hydroxy-4-(4-((1-methyl-2-oxopyrrolidin-3-yl)amino)isoindoline-2-carbonyl)benzonitrile], the IC50 was 0.1 to 1 µM.

Regarding `CN(C)CCOc1ccc2c(c1)CCN(C(=O)c1c(O)cc(C#N)cc1OCc1ccccc1)C2` [Example 10.29, 3-(Benzyloxy)-4-(6-(2-(dimethylamino)ethoxy)-1,2,3,4-tetrahydroisoquinoline-2-carbonyl)-5-hydroxybenzonitrile], the IC50 was 1 to 10 µM.

On to `CN1CC[C@@H](Oc2ccc3c(c2)CN(C(=O)c2c(O)cc(C#N)cc2OCc2ccccc2)C3)C1` [Example 10.30, (R)-3-(Benzyloxy)-5-hydroxy-4-(5-((1-methylpyrrolidin-3-yl)oxy)isoindoline-2-carbonyl)benzonitrile], for which the IC50 lay within 0.1 to 1 µM.

Turning to `CN1CC[C@H](Oc2ccc3c(c2)CN(C(=O)c2c(O)cc(C#N)cc2OCc2ccccc2)C3)C1` [Example 10.31, (S)-3-(Benzyloxy)-5-hydroxy-4-(5-((1-methylpyrrolidin-3-yl)oxy)isoindoline-2-carbonyl)benzonitrile], the IC50 is 0.1 to 1 µM.

As for `CN1CC(Oc2ccc3c(c2)CN(C(=O)c2c(O)cc(C#N)cc2OCc2ccccc2)C3)C1` [Example 10.32, 3-(Benzyloxy)-5-hydroxy-4-(5-((1-methylazetidin-3-yl)oxy)isoindoline-2-carbonyl)benzonitrile], the IC50 is 0.1 to 1 µM.

As to `CN1CCC(Oc2ccc3c(c2)CN(C(=O)c2c(O)cc(C#N)cc2OCc2ccccc2)C3)CC1` [Example 10.33, 3-(Benzyloxy)-5-hydroxy-4-(5-((1-methylpiperidin-4-yl)oxy)isoindoline-2-carbonyl)benzonitrile], the IC50 lay within 0.1 to 1 µM.

As for `CN1CCN(Cc2ccc3c(c2)CN(C(=O)c2c(O)cc(C#N)cc2OCc2ccccc2)C3)CC1` [Example 10.34, 3-(Benzyloxy)-5-hydroxy-4-(5-((4-methylpiperazin-1-yl)methyl)isoindoline-2-carbonyl)benzonitrile], the IC50 fell in the range of 0.1 to 1 µM.

Turning to `COCCOc1ccc2c(c1)CN(C(=O)c1c(O)cc(C#N)cc1OCc1ccccc1)C2` [Example 10.35, 3-(Benzyloxy)-5-hydroxy-4-(5-(2-methoxyethoxy)isoindoline-2-carbonyl)benzonitrile], the half-inhibitory concentration (IC50) is 0.1 to 1 µM.

As for `N#Cc1cc(O)c(C(=O)N2Cc3ccc(OC4CCOCC4)cc3C2)c(OCc2ccccc2)c1` [Example 10.36, 3-(Benzyloxy)-5-hydroxy-4-(5-((tetrahydro-2H-pyran-4-yl)oxy)isoindoline-2-carbonyl)benzonitrile], the IC50 lay within 0.1 to 1 µM.

Consider `CN1CC(Oc2ccc3c(c2)CN(C(=O)c2c(O)cc(C#N)cc2OCc2ccccn2)C3)C1` [Example 10.37, 3-Hydroxy-4-(5-((1-methylazetidin-3-yl)oxy)isoindoline-2-carbonyl)-5-(pyridin-2-ylmethoxy)benzonitrile], for which the 50% inhibitory concentration (IC50) was 1 to 10 µM.

Take `N#Cc1cc(O)c(C(=O)N2Cc3cccc(NC4COC4)c3C2)c(OCc2ccccn2)c1` [Example 10.38, 3-Hydroxy-4-(4-(oxetan-3-ylamino)isoindoline-2-carbonyl)-5-(pyridin-2-ylmethoxy)benzonitrile]: the IC50 was 1 to 10 µM.

The values above are taken from US20260217687A1 (NeoPhore Limited, priority 2023, published 2026).
